# From patent publication US10058525B2, “Application of chlorogenic acid in preparing medicines for treating lupus erythematosus” (SICHUAN JIUZHANG BIOLOGICAL SCIENCE AND TECHNOLOGY CO., LTD., priority 2015, dated 2018)
# What was measured:
# Type in all cases: in vivo, BALB/c mice
# ANA [1] = test: Serologic detection of ANA by immunofluorescence on HEp-2 cell sheets, serum of UV + LPS lupus model mice; parameters: key: (+): positive; (−): negative; (++++): intense fluorescence; (+++): stronger fluorescence; (++): weeker fluorescence; conditions: intragastric
# Procedure: (§1) The back of mice was shaved and acutely exposed to Ultraviolet of 2 h/d*3 d, with a distance of 30 cm. After exposure to UV, 2.5 mg/kg of LPS was administrated once by ip, and after 24 h, the model was successfully established; the mice in the normal control group received normal saline via ip. 24 h after injection of LPS (ip), medicines were given to the model mice by intragastric administration. Chlorogenic acid test groups received high, middle, and low doses of medicines, by intragastric administration at a respective dosage of 10 mg/kg*d, 20 mg/kg*d, and 40 mg/kg*d. The positive control group A received 2 mg/kg*d of artesunate by stomach perfusion, while the positive control group B received 1 mg/kg*d of prednisone by stomach perfusion. Mice in the model and normal control group all received 0.4 ml/mouse normal saline by gavage. After 15 days of administration, animals in each group were taken blood by separating eyeballs on days 14, 21, 28, and after cultured in water bath at 37° C. for 1 h, the blood sample was centrifugated at 2000 r/min for 5 min, to draw serum for use. On day 21, after blood collection, animals were sacrificed by dislocation, followed by collection of liver and kidney, and they were placed in fixative solutions of electron microscope and light microscrope, respectively. Serum of mice was diluted at 1:100 with special buffer solution of Shenzhen Hengjia, and then 200 μL of diluted serum was respectively added to the reactive tank with corresponding number, cultured in the incubator at 37° C. for 30 min, and washed with the buffer solution four times, 2 min for each time; 200 μL of diluted biotin goat anti-mouse IgG (1:100) was added, cultured in the incubator at 37° C. for 30 min, and then washed with the buffer solution four times, 2 min for each time; 100 μL of diluted HRP-avidin (1:100) was added, cultured in the incubator at 37° C. for 30 min, and then washed as mentioned-above; reactive solutions A and B were added till appearance of positive bands, then washed with the buffer solution. Compared with the standard bands of ENA polypeptide antibody spectrum in the same kit, if the positive bands appeared at 28/29,13.5 ku polypeptide; 15,16.5,38 kupolypeptide; 52 kupolypeptide and 47/48,45 kupolypeptide, that can be determined as anti-Sm, anti-Rib, anti-ssA, and anti-ssB positive antibody. Serum was diluted with PBS at 1:40, then 20-30 μL of diluted serum was dropped into the scrobiculus of HEp-2 cell sheets, each cell sheet for each group. In the process of dropping serum, it should be noted that the surface of cell sheet can not be touched. After addition of serum, cell sheet was placed in wet box and kept for 30 min at room temperature (25° C.). After 30 min, the cell sheet was taken out, and serum was carefully washed out with PBS, then carefully washed twice with PBS, 5 min for each time; after washing, the remained PBS was removed by special absorbent paper of […] company (In this process, it should be noted that becoming dry of cell substrates will affect the results). 20-30 μL of diluted (PBS, 1:100) FITC goat anti-mouse IgG was added by dropping, and then incubated in wet box at room temperature for 30 min. After washing with PBS, steps were same to above. The remained PBS was removed by absorbent paper, and 1-2 drops of fluorescent mounting media were added to the cell sheet. The cover glass was mounted, observed under Olympus BH-2 universal microscope, and then photographed.
# ANA [2] = test: as above; conditions: chlorogenic acid high dose, ×200
# Procedure: The back of mice was shaved and acutely exposed to Ultraviolet of 2 h/d*3 d, with a distance of 30 cm. After exposure to UV, 2.5 mg/kg of LPS was administrated once by ip, and after 24 h, the model was successfully established; the mice in the normal control group received normal saline via ip. 24 h after injection of LPS (ip), medicines were given to the model mice by intragastric administration. Chlorogenic acid test groups received high, middle, and low doses of medicines, by intragastric administration at a respective dosage of 10 mg/kg*d, 20 mg/kg*d, and 40 mg/kg*d. The positive control group A received 2 mg/kg*d of artesunate by stomach perfusion, while the positive control group B received 1 mg/kg*d of prednisone by stomach perfusion. Mice in the model and normal control group all received 0.4 ml/mouse normal saline by gavage. After 15 days of administration, animals in each group were taken blood by separating eyeballs on days 14, 21, 28, and after cultured in water bath at 37° C. for 1 h, the blood sample was centrifugated at 2000 r/min for 5 min, to draw serum for use. On day 21, after blood collection, animals were sacrificed by dislocation, followed by collection of liver and kidney, and they were placed in fixative solutions of electron microscope and light microscrope, respectively. Serum of mice was diluted at 1:100 with special buffer solution of Shenzhen Hengjia, and then 200 μL of diluted serum was respectively added to the reactive tank with corresponding number, cultured in the incubator at 37° C. for 30 min, and washed with the buffer solution four times, 2 min for each time; 200 μL of diluted biotin goat anti-mouse IgG (1:100) was added, cultured in the incubator at 37° C. for 30 min, and then washed with the buffer solution four times, 2 min for each time; 100 μL of diluted HRP-avidin (1:100) was added, cultured in the incubator at 37° C. for 30 min, and then washed as mentioned-above; reactive solutions A and B were added till appearance of positive bands, then washed with the buffer solution. Compared with the standard bands of ENA polypeptide antibody spectrum in the same kit, if the positive bands appeared at 28/29,13.5 ku polypeptide; 15,16.5,38 kupolypeptide; 52 kupolypeptide and 47/48,45 kupolypeptide, that can be determined as anti-Sm, anti-Rib, anti-ssA, and anti-ssB positive antibody. Serum was diluted with PBS at 1:40, then 20-30 μL of diluted serum was dropped into the scrobiculus of HEp-2 cell sheets, each cell sheet for each group. In the process of dropping serum, it should be noted that the surface of cell sheet can not be touched. After addition of serum, cell sheet was placed in wet box and kept for 30 min at room temperature (25° C.). […]
# ANA [3] = test: as above; parameters: key: (+): positive; (−): negative; (++++): intenseintensity; (+++): stronger fluorescent intensity; conditions: day 14, intragastric
# Procedure: as §1
# [4] = tested on: lupus erythematosus model mice (kidney, liver); test: Triple staining (silver staining) of kidney and liver sections under light microscope, lupus model mice
# Procedure: The back of mice was shaved and acutely exposed to Ultraviolet of 2 h/d*3 d, with a distance of 30 cm. After exposure to UV, 2.5 mg/kg of LPS was administrated once by ip, and after 24 h, the model was successfully established; the mice in the normal control group received normal saline via ip. 24 h after injection of LPS (ip), medicines were given to the model mice by intragastric administration. Chlorogenic acid test groups received high, middle, and low doses of medicines, by intragastric administration at a respective dosage of 10 mg/kg*d, 20 mg/kg*d, and 40 mg/kg*d. The positive control group A received 2 mg/kg*d of artesunate by stomach perfusion, while the positive control group B received 1 mg/kg*d of prednisone by stomach perfusion. Mice in the model and normal control group all received 0.4 ml/mouse normal saline by gavage. After 15 days of administration, animals in each group were taken blood by separating eyeballs on days 14, 21, 28, and after cultured in water bath at 37° C. for 1 h, the blood sample was centrifugated at 2000 r/min for 5 min, to draw serum for use. On day 21, after blood collection, animals were sacrificed by dislocation, followed by collection of liver and kidney, and they were placed in fixative solutions of electron microscope and light microscrope, respectively.
# […] The thickness of slice is 3 μm, and at beginning of staining, wax was routinely deprived to water. After oxidation with 0.5% periodic acid, the slice was macerated in hexamine silver fluid for about 2 h (constant temperature 58° C.), washed with distilled water, dyed with hematoxylin for 1 min. After washing with water, the slice was dyed by dropping the ponceau staining solution for 5 min, differentiated with 70% ethanol, dehydrated with gradient ethanol, cleared with xylene, and sealed with neutral gum.
# [5] = chlorogenic acid group administrated for 28 days
smiles,measurement,setting,value
"O=C(/C=C/c1ccc(O)c(O)c1)O[C@@H]1C[C@](O)(C(=O)O)C[C@@H](O)[C@H]1O [Chlorogenic acid, 3-O-caffeoylquinic acid]",ANA,"ANA [1]; day 21, chlorogenic acid high dose",(++)
same,ANA,"ANA [1]; day 21, chlorogenic acid low dose",(+++)
same,ANA,"ANA [1]; day 21, chlorogenic acid middle dose",(++)
same,ANA,"ANA [1]; day 28, chlorogenic acid high dose",(++)
same,ANA,"ANA [1]; day 28, chlorogenic acid low dose",(+++)
same,ANA,"ANA [1]; day 28, chlorogenic acid middle dose",(++)
same,fluorescence intensity of ANA (FIG. 2),ANA [2]; 14 days,decreases
same,fluorescence intensity of ANA (FIG. 3),ANA [2]; 21 days,decreases
same,fluorescence intensity of ANA (FIG. 4),ANA [2]; 28 days,decreases
same,ANA,ANA [3]; chlorogenic acid high dose,(+++)
same,ANA,ANA [3]; chlorogenic acid low dose,(++++)
same,ANA,ANA [3]; chlorogenic acid middle dose,(+++)
same,staining of hepatic blood vessel basilar membrane,[4]; [5],somewhat recovered
same,thickening degree of renal glomerular and tubular basilar membrane,[4]; [5],reduced compared with normal mice
same,"basilar membrane of renal glomerulus and tubule, pathological section","[4]; chlorogenic acid, 21 days",increased thickness compared with normal mice
same,pathological section of kidney: conditions versus model group,"[4]; chlorogenic acid, 21 days, especially high dose group",better than the model group
same,thickening of renal glomerulus and tubular basement membrane (FIG. 8),"[4]; high dose of chlorogenic acid, 28 days, ×50",thickening degree of renal glomerulus and tubular basement membrane reduces
